In assay [1] the target is JAK3 (Homo sapiens (Human), UniProt P52333). Description: Jak Biochemical HTRF Assay (JAK3). The settings on record: recombinant GST-tagged catalytic domain, [ATP] 2.9 μM. (In general: TR-FRET usually uses a lanthanide donor and a delayed reading to cut background.)
In assay [2] the target is JAK2 (Homo sapiens (Human), UniProt O60674). Kind of assay: Jak Biochemical HTRF Assay (JAK2). The settings on record: recombinant GST-tagged catalytic domain, [ATP] 8.5 μM.
Chain of JAK2 (O60674 849-1124): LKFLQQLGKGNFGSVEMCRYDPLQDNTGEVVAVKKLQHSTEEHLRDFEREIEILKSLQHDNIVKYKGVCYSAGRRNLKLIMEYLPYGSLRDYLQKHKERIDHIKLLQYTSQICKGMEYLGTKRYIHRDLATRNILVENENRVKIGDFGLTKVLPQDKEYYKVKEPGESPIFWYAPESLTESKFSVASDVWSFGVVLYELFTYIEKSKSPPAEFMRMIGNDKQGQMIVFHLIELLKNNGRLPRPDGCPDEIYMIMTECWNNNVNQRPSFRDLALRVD

Chain of JAK3 (P52333 822-1111): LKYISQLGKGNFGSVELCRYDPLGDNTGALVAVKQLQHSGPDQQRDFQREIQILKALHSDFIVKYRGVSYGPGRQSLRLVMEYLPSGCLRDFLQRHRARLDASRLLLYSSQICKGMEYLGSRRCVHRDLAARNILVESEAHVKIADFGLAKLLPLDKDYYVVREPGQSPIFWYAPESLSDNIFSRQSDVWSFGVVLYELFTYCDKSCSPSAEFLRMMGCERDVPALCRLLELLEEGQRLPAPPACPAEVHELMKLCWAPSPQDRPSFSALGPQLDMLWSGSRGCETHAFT

On to `CCOC(=O)c1c[nH]c2ncnc(-c3cccc(NC(=O)/C=C\c4ccccc4OC)c3)c12` [Example 5-23, ethyl 4-(3-{[(2Z)-3-(2-methoxyphenyl)prop-2-enoyl]amino}phenyl)-7H-pyrrolo[2,3-d]pyrimidine-5-carboxylate], for which the half-inhibitory concentration (IC50) (usually the midpoint of a concentration-inhibition curve) in assay [1] (given as range class) is 10 to 500 nM; in assay [2] (given as range class), over 500 nM.
Taken in the same sequence, the figures for `CCOC(=O)c1c[nH]c2ncnc(-c3cccc(NC(=O)/C=C/c4cccc(OC)c4)c3)c12` [Example 5-24, ethyl 4-(3-{[(2E)-3-(3-methoxyphenyl)prop-2-enoyl]amino}phenyl)-7H-pyrrolo[2,3-d]pyrimidine-5-carboxylate] were 10 to 500 nM and over 500 nM.
As for `CC/C=C(\C)C(=O)Nc1cccc(-c2ncnc3[nH]cc(C(=O)OCC)c23)c1` [Example 5-25, ethyl 4-(3-{[(2E)-2-methylpent-2-enoyl]amino}phenyl)-7H-pyrrolo[2,3-d]pyrimidine-5-carboxylate], the IC50 in assay [1] (given as range class) was 10 to 500 nM; in assay [2] (given as range class), over 500 nM.
With `CCOC(=O)c1c[nH]c2ncnc(-c3cccc(NC(=O)/C(F)=C/c4ccccc4)c3)c12` [Example 5-26, ethyl 4-(3-{[(2Z)-2-fluoro-3-phenylprop-2-enoyl]amino}phenyl)-7H-pyrrolo[2,3-d]pyrimidine-5-carboxylate], the half-maximal inhibitory concentration (IC50) is 10 to 500 nM in assay [1] (given as range class) and over 500 nM in assay [2] (given as range class).
Take `CCOC(=O)c1c[nH]c2ncnc(-c3cccc(NC(=O)C=C(C)C)c3)c12` [Example 5-27, ethyl 4-{3-[(3-methylbut-2-enoyl)amino]phenyl}-7H-pyrrolo[2,3-d]pyrimidine-5-carboxylate]: the results for the IC50 in assay [1] (given as range class) and in assay [2] (given as range class) were 10 to 500 nM and over 500 nM, respectively.
Taken in the same sequence, the figures for `CCOC(=O)c1c[nH]c2ncnc(-c3cccc(NC(=O)/C=C/c4ccc(OC)cc4)c3)c12` [Example 5-29, ethyl 4-(3-{[(2E)-3-(4-methoxyphenyl)prop-2-enoyl]amino}phenyl)-7H-pyrrolo[2,3-d]pyrimidine-5-carboxylate] were 10 to 500 nM and over 500 nM.
`CCOC(=O)c1c[nH]c2ncnc(-c3cccc(NC(=O)/C=C/c4cccnc4)c3)c12` [Example 5-30, ethyl 4-(3-{[(2E)-3-pyridin-3-ylprop-2-enoyl]amino}phenyl)-7H-pyrrolo[2,3-d]pyrimidine-5-carboxylate]: the IC50 in assay [1] (given as range class) is 10 to 500 nM; in assay [2] (given as range class), over 500 nM.
Taken in the same sequence, the figures for `C/C=C(\C)C(=O)Nc1cccc(-c2ncnc3[nH]cc(C(=O)OCC)c23)c1` [Example 5-31, ethyl 4-(3-{[(2E)-2-methylbut-2-enoyl]aminol}phenyl)-7H-pyrrolo[2,3-d]pyrimidine-5-carboxylate] were 10 to 500 nM and over 500 nM.
As for `CCOC(=O)c1c[nH]c2ncnc(-c3cccc(NC(=O)/C=C/c4ccco4)c3)c12` [Example 5-32, ethyl 4-(3-{[(2E)-3-furan-2-ylprop-2-enoyl]amino}phenyl)-7H-pyrrolo[2,3-d]pyrimidine-5-carboxylate], the values for the IC50 in assay [1] (given as range class) and in assay [2] (given as range class) were 10 to 500 nM and over 500 nM, respectively.
For `CC/C=C/C(=O)Nc1cccc(-c2ncnc3[nH]cc(C(=O)OCC)c23)c1` [Example 5-33, ethyl 4-{3-[(2E)-pent-2-enoylamino]phenyl}-7H-pyrrolo[2,3-d]pyrimidine-5-carboxylate], the figures for the IC50 in assay [1] (given as range class) and in assay [2] (given as range class) were 10 to 500 nM and over 500 nM, respectively.
Take `CCOC(=O)c1c[nH]c2ncnc(-c3cccc(NC(=O)/C=C(/C)C(F)(F)F)c3)c12` [Example 5-34, ethyl 4-(3-{[(2Z)-4,4,4-trifluoro-3-methylbut-2-enoyl]amino}phenyl)-7H-pyrrolo[2,3-d]pyrimidine-5-carboxylate]: the IC50 in assay [1] is 1.9 nM; in assay [2], over 1500 nM.
As to `CCOC(=O)c1c[nH]c2ncnc(-c3cccc(NC(=O)C4=CCCCC4)c3)c12` [Example 5-35, ethyl 4-{3-[(cyclohex-1-en-1-ylcarbonyl)amino]phenyl}-7H-pyrrolo[2,3-d]pyrimidine-5-carboxylate], the IC50 in assay [1] (given as range class) was 10 to 500 nM; in assay [2] (given as range class), over 500 nM.
As for `CCOC(=O)c1c[nH]c2ncnc(-c3cccc(NC(=O)C4=CC(=O)CC4)c3)c12` [Example 5-36, ethyl 4-(3-{[(3-oxocyclopent-1-en-1-yl)carbonyl]amino}phenyl)-7H-pyrrolo[2,3-d]pyrimidine-5-carboxylate], the IC50 in assay [1] was 0.14 nM; in assay [2], over 1500 nM.
Consider `CCOC(=O)c1c[nH]c2ncnc(-c3cccc(NC(=O)C=C4CCCC4)c3)c12` [Example 5-37, ethyl 4-{3-[(cyclopentylideneacetyl)amino]phenyl}-7H-pyrrolo[2,3-d]pyrimidine-5-carboxylate], for which the IC50 in assay [1] (given as range class) was 10 to 500 nM; in assay [2] (given as range class) it was over 500 nM.
On to `C/C=C(/OC)C(=O)Nc1cccc(-c2ncnc3[nH]cc(C(=O)OCC)c23)c1` [Example 5-38, ethyl 4-(3-{[(2E)-2-methoxybut-2-enoyl]amino}phenyl)-7H-pyrrolo[2,3-d]pyrimidine-5-carboxylate], for which the IC50 in assay [1] (given as range class) was 10 to 500 nM; in assay [2] (given as range class), over 500 nM.
For the compound `CCOC(=O)c1c[nH]c2ncnc(-c3cccc(NC(=O)/C=C/c4nccs4)c3)c12` [Example 5-39, ethyl 4-(3-{[(2E)-3-(1,3-thiazol-2-yl)prop-2-enoyl]amino}phenyl)-7H-pyrrolo[2,3-d]pyrimidine-5-carboxylate], the IC50 in assay [1] was 3.9 nM; in assay [2], 496 nM.
On to `CCOC(=O)c1c[nH]c2ncnc(-c3cccc(NC(=O)C4=COCC4)c3)c12` [Example 5-40], for which the values for the IC50 in assay [1] (given as range class) and in assay [2] (given as range class) were 10 to 500 nM and over 500 nM, respectively.
Consider `C=C(CN1CCOCC1)C(=O)Nc1cccc(-c2ncnc3[nH]cc(C(=O)OCC)c23)c1` [Example 5-41, ethyl 4-(3-{[2-(morpholin-4-ylmethyl)acryloyl]amino}phenyl)-7H-pyrrolo[2,3-d]pyrimidine-5-carboxylate], for which the IC50 in assay [1] is 0.66 nM; in assay [2], over 1500 nM.
Take `CCOC(=O)c1c[nH]c2ncnc(-c3cccc(NC(=O)/C=C/C(F)(F)F)c3)c12` [Example 5-42, ethyl 4-(3-{[(2E)-4,4,4-trifluorobut-2-enoyl]amino}phenyl)-7H-pyrrolo[2,3-d]pyrimidine-5-carboxylate]: the IC50 in assay [1] (given as range class) was 10 to 500 nM; in assay [2] (given as range class), over 500 nM.
Take `CCOC(=O)c1c[nH]c2ncnc(-c3cccc(NC(=O)/C(C)=C/c4ccccc4)c3)c12` [Example 5-43, ethyl 4-(3-{[(2E)-2-methyl-3-phenylprop-2-enoyl]amino}phenyl)-7H-pyrrolo[2,3-d]pyrimidine-5-carboxylate]: the results for the IC50 in assay [1] (given as range class) and in assay [2] (given as range class) were 10 to 500 nM and over 500 nM, respectively.
Taken in the same sequence, the figures for `CCOC(=O)c1c[nH]c2ncnc(-c3cccc(NC(=O)/C=C/c4ccc(C(F)(F)F)cc4)c3)c12` [Example 5-44, ethyl 4-[3-({(2E)-3-[4-(trifluoromethyl)phenyl]prop-2-enoyl}amino)phenyl]-7H-pyrrolo[2,3-d]pyrimidine-5-carboxylate] were 10 to 500 nM and over 500 nM.
With `C=C(COC)C(=O)Nc1cccc(-c2ncnc3[nH]cc(C(=O)OCC)c23)c1` [Example 5-45, ethyl 4-(3-{[2-(methoxymethyl)acryloyl]amino}phenyl)-7H-pyrrolo[2,3-d]pyrimidine-5-carboxylate], the IC50 in assay [1] is 0.025 nM; in assay [2], over 1500 nM.
For the compound `CCOC(=O)c1c[nH]c2ncnc(-c3cccc(Nc4nc(Cl)ns4)c3)c12` [Example 6-1, Ethyl 4-{3-[(3-chloro-1,2,4-thiadiazol-5-yl)amino]phenyl}-7H-pyrrolo[2,3-d]pyrimidine-5-carboxylate], the IC50 in assay [1] worked out at 9.2 nM; in assay [2] it was 109 nM.
As to `CCOC(=O)c1c[nH]c2ncnc(-c3cccc(Nc4nccnc4C#N)c3)c12` [Example 6-2, Ethyl-4-{3-[(3-cyanopyrazin-2-yl)amino]phenyl}-7H-pyrrolo[2,3-d]pyrimidine-5-carboxylate], the IC50 is 10 to 500 nM in assay [1] (given as range class) and over 500 nM in assay [2] (given as range class).
As to `CCOC(=O)c1c[nH]c2ncnc(-c3cccc(Nc4ncnc(C#N)n4)c3)c12` [Example 6-3, ethyl 4-{3-[(4-cyano-1,3,5-triazin-2-yl)amino]phenyl}-7H-pyrrolo[2,3-d]pyrimidine-5-carboxylate], the IC50 in assay [1] (given as range class) and in assay [2] (given as range class) was 10 to 500 nM each time.
Regarding `CCOC(=O)c1c[nH]c2ncnc(-c3cccc(Nc4nc(C#N)ns4)c3)c12` [Example 6-4, ethyl 4-{3-[(3-cyano-1,2,4-thiadiazol-5-yl)amino]phenyl}-7H-pyrrolo[2,3-d]pyrimidine-5-carboxylate], the IC50 in assay [1] (given as range class) was 10 to 500 nM; in assay [2] (given as range class), over 500 nM.
As for `CCOC(=O)c1c[nH]c2ncnc(-c3cccc(-c4ccnc(C#N)n4)c3)c12` [Example 7-1, Ethyl 4-(3-(2-cyanopyrimidin-4-yl)phenyl)-7H-pyrrolo[2,3-d]pyrimidine-5-carboxylate], the IC50 in assay [1] (given as range class) is 10 to 500 nM; in assay [2] (given as range class), over 500 nM.
Taken in the same sequence, the figures for `CCOC(=O)c1c[nH]c2ncnc(-c3cccc(-c4nc(Cl)ns4)c3)c12` [Example 7-2, ethyl 4-(3-(3-chloro-1,2,4-thiadiazol-5-yl)phenyl)-7H-pyrrolo[2,3-d]pyrimidine-5-carboxylate] were 10 to 500 nM and over 500 nM.
For `CCOC(=O)c1c[nH]c2ncnc(-c3cccc(-c4nc(Br)ns4)c3)c12` [Example 7-3, ethyl 4-(3-(3-bromo-1,2,4-thiadiazol-5-yl)phenyl)-7H-pyrrolo[2,3-d]pyrimidine-5-carboxylate], the values for the IC50 in assay [1] (given as range class) and in assay [2] (given as range class) were 10 to 500 nM and over 500 nM, respectively.
As for `CCOC(=O)c1c[nH]c2ncnc(-c3cccc(-c4nc(C#N)ns4)c3)c12` [Example 7-4, Ethyl 4-(3-(cyano-1,2,4-thiadiazol-5-yl)phenyl)-7H-pyrrolo[2,3-d]pyrimidine-5-carboxylate], the IC50 in assay [1] (given as range class) is 10 to 500 nM; in assay [2] (given as range class), over 500 nM.
Regarding `CCOC(=O)c1c[nH]c2ncnc(-c3cccc(C(=O)NCC#N)c3)c12` [Example 8-1], the IC50 in assay [1] (given as range class) is 10 to 500 nM; in assay [2] (given as range class) it was over 500 nM.
